Source: patent US20240091195A1 (SANWA KAGAKU KENKYUSHO CO., LTD., priority 2021, published 2024)

Legend:
[1] = dissolved in ethanol, stability after 24 hours
[2] = system: rat pilocarpine-induced salivary secretion model; test: Pilocarpine-induced salivary secretion, 0.25 cm^2 transdermal absorptive preparations (Test Example 3); conditions: 0.25 cm^2 applied to neck once a day, pilocarpine hydrochloride 0.5 mg/kg i.v.
[3] = system: rat pilocarpine-induced salivary secretion model; test: Pilocarpine-induced salivary secretion, 0.5 cm^2 transdermal absorptive preparations (Test Example 2); assay type: in vivo, Hairless rats (HWY/Slc); conditions: 0.5 cm^2 applied to neck once a day, pilocarpine hydrochloride 0.5 mg/kg i.v., n=5
Method: Under isoflurane anesthesia, 0.5 cm^2 of each of the transdermal absorptive preparations (including a placebo preparation) containing various glycopyrronium salts produced in accordance with Preparation Production Example 1, Comparative Preparation Production Examples 2 and 4, and Reference Preparation Production Example 1 was applied to the necks of the rats once a day every 24 hours for 2 days.
The amount of saliva secreted was calculated from the difference between the weights of the cotton ball before and after collection of saliva, and taking the average value of the amount of saliva secreted of the placebo group as 100%, the salivary secretion proportion of each individual was calculated from the following (equation).

Question: For `C[N+]1(C)CCC(OC(=O)C(O)(c2ccccc2)C2CCCC2)C1.O=C([O-])c1ccccc1` (stereo not drawn) [Glycopyrronium benzoate, glycopyrronium benzoate], which decomposition in ethanol [1] is on record?
Answer: 10%

Question: For `C[N+]1(C)CCC(OC(=O)C(O)(c2ccccc2)C2CCCC2)C1` (stereo not drawn) [Glycopyrronium salicylate, 3-(2-cyclopentyl-2-hydroxy-2-phenylacetoxy)-1,1-dimethylpyrrolidium salicylate], which “salivary secretion suppressive effect compared with placebo group” value ([2]; Day 1 of application, listed as glycopyrronium salicylate) is on record?
Answer: strongest and significant salivary secretion suppressive effect

Question: What about the “salivary secretion suppressive effect compared with placebo group” value ([2]; Day 2 of application, listed as glycopyrronium salicylate) of the same compound?
Answer: strongest and significant salivary secretion suppressive effect

Question: What about the “salivary secretion suppressive effect compared with placebo group” value ([3]; Day 1 of application (23 hours after first application), listed as glycopyrronium salicylate) of the same compound?
Answer: significant salivary secretion suppressive effects

Question: What about the “salivary secretion suppressive effect compared with placebo group” value ([3]; Day 2 of application (47 hours after first application)) of the same compound?
Answer: strongest salivary secretion suppressive effect

Question: For Glycopyrronium acetate, which decomposition in ethanol [1] is on record?
Answer: 20%

Question: With `C[N+]1(C)CCC(OC(=O)C(O)(c2ccccc2)C2CCCC2)C1.O=C([O-])CNC(=O)c1ccccc1` (racemic) [Glycopyrronium hippurate, (3RS, 2SR)-glycopyrronium hippurate] as the compound, how does the “salivary secretion suppressive effect compared with placebo group” value ([2]; Day 1 of application) read?
Answer: significant effect

Question: What about the “salivary secretion suppressive effect compared with placebo group” value ([2]; Day 2 of application) of the same compound?
Answer: significant effect only on Day 1 of application

Question: What about the “salivary secretion suppressive effect compared with placebo group” value ([3]; Day 1 of application (23 hours after first application)) of the same compound?
Answer: significant salivary secretion suppressive effects

Question: With `C[N+]1(C)CCC(OC(=O)C(O)(c2ccccc2)C2CCCC2)C1` (stereo not drawn) [Glycopyrronium bromide, (3RS, 2SR)-glycopyrronium bromide] as the compound, how does the “salivary secretion suppressive effect compared with placebo group” value ([2]; Day 1 of application, listed as glycopyrronium bromide) read?
Answer: did not show any significant effect

Question: And the “salivary secretion suppressive effect compared with placebo group” value ([2]; Day 2 of application, listed as glycopyrronium bromide)?
Answer: did not show any significant effect

Question: What about the “salivary secretion suppressive effect compared with placebo group” value ([3]; Day 1 of application (23 hours after first application), listed as glycopyrronium-bromide) of the same compound?
Answer: no significant effect
